Here are results for 10 compounds from ChEMBL document CHEMBL1129020, “Synthesis and protein kinase C inhibitory activities of indane analogs of balanol” (Bioorg Med Chem Lett, 1996).

Where only a bound is given, the exact number is not on record here.

Test [1] has as its target T1, Protein kinase C beta type (Homo sapiens, UniProt P05771). In words: Inhibition of protein kinase C beta II.
Test [2] has as its target T1, Protein kinase C beta type. As to the kind of experiment: Inhibition of protein kinase C beta 1.
Test [3] addresses Protein kinase C alpha type (Homo sapiens, UniProt P17252). As to the kind of experiment: Inhibition of protein kinase C alpha.
The target in test [4] is T2, Protein kinase C gamma type (Homo sapiens, UniProt P05129). As to the kind of experiment: Inhibition of protein kinase C gamma.
Test [5] addresses T3, Protein kinase C delta type (Homo sapiens, UniProt Q05655). In words: Inhibition of protein kinase C delta.
The target of test [6] is T4, Protein kinase C eta type (Homo sapiens, UniProt P24723). As to the kind of experiment: Inhibition of protein kinase C eta.
The target of test [7] is T5, Protein kinase C epsilon type (Homo sapiens, UniProt Q02156).
T5 sequence (Q02156 whole entry): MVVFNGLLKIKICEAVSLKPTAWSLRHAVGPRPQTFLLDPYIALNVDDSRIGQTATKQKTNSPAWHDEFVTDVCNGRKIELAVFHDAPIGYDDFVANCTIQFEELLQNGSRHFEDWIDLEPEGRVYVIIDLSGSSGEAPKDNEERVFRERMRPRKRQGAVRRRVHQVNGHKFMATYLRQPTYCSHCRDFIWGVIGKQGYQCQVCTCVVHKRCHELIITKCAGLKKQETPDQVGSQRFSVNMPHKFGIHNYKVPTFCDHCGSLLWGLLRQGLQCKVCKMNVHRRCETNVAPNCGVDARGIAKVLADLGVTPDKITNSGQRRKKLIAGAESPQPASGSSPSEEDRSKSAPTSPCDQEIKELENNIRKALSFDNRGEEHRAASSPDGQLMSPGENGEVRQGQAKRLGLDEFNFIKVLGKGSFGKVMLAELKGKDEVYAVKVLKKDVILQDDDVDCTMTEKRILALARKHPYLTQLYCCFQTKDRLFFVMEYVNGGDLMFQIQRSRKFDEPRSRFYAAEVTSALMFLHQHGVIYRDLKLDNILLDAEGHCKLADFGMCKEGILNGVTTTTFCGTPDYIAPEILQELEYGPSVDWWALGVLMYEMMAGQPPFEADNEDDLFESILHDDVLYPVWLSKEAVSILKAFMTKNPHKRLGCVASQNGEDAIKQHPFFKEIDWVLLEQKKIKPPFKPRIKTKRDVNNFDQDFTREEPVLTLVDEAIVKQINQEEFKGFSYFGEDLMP
As to the kind of experiment: Inhibition of protein kinase C epsilon.

Test [8] addresses cAMP-dependent protein kinase (PKA) (Homo sapiens, UniProt P22694+P17612+P22612). In words: Inhibition of cAMP-dependent protein kinase (PKA). It is filed as protein assay.
For test [9], the target named is T4, Protein kinase C eta type. In words: Inhibition of Protein kinase C eta.
In test [10] the target is T1, Protein kinase C beta type. In words: Inhibition of Protein kinase C beta 1.
Test [11] concerns the target T3, Protein kinase C delta type. As to the kind of experiment: Inhibition of Protein kinase C delta.
Test [12] addresses T1, Protein kinase C beta type. In words: Inhibition of Protein kinase C beta 2.
For test [13], the target named is T2, Protein kinase C gamma type. In words: Inhibition of Protein kinase C gamma.

T4 sequence (P24723 whole entry): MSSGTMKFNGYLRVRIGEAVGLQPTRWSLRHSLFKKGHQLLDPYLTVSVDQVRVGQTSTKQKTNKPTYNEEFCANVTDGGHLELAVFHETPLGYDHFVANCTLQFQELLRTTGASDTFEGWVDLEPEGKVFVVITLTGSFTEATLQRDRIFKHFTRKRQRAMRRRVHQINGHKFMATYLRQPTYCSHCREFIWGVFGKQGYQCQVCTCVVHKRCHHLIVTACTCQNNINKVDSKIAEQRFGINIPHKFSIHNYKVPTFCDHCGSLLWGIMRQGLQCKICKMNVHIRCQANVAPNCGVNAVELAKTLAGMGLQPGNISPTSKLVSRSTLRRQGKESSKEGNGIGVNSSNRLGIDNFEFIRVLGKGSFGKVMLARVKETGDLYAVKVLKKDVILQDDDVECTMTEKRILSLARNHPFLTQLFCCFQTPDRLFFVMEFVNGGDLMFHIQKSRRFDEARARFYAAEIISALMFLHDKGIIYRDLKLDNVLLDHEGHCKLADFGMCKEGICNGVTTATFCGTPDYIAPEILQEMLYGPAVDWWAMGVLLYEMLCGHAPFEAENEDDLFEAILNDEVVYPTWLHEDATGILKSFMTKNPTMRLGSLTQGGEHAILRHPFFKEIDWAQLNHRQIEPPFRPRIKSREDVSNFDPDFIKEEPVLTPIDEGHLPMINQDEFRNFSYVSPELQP
T3 sequence (Q05655 whole entry): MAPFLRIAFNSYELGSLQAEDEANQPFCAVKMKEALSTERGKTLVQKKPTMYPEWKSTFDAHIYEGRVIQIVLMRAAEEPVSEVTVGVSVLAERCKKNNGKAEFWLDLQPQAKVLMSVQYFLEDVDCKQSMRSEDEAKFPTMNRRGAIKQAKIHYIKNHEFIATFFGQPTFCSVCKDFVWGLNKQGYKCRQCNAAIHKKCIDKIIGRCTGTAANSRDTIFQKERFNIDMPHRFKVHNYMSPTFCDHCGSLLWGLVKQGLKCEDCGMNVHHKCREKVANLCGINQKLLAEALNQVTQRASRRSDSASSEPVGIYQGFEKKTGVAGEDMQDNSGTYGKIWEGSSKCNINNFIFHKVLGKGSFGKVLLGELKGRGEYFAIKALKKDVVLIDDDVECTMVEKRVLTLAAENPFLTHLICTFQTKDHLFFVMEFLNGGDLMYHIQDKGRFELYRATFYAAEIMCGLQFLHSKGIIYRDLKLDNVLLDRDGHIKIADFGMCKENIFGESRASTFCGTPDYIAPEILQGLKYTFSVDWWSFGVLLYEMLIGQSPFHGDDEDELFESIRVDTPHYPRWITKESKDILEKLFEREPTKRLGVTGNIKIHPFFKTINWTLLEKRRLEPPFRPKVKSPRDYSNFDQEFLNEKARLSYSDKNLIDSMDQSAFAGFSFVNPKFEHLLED
T1 sequence (P05771 whole entry): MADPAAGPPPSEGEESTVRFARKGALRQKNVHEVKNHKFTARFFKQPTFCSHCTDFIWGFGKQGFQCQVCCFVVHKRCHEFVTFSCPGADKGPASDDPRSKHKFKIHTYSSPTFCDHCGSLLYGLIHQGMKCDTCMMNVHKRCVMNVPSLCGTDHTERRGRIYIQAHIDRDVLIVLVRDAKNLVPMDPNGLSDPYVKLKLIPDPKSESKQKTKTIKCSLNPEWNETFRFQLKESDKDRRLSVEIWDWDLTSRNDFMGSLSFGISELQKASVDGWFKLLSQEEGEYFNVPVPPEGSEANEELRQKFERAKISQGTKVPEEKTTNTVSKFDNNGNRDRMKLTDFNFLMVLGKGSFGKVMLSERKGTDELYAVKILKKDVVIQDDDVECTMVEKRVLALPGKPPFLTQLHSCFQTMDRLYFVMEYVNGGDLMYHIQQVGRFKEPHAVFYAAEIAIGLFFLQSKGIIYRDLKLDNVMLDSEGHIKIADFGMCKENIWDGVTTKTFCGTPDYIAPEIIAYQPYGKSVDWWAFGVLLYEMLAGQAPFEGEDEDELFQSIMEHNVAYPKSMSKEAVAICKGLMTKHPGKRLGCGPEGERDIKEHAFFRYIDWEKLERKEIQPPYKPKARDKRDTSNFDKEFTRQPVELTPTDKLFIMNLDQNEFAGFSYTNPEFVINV

One may read the IC50 as the concentration that inhibits the measured activity by half. Regarding `O=C(N[C@@H]1c2ccccc2C[C@H]1OC(=O)c1cc(O)c(C(=O)c2c(O)cccc2C(=O)O)c(O)c1)c1ccc(O)cc1`, the IC50 in test [1] is 39 µM; in [2], greater than 50 µM; in [3], greater than 50 µM; in test [4], 32 µM; in [5] it was 32 µM; in test [6], 35 µM. The same compound returned an IC50 in test [7] greater than 50 µM.

Consider `O=C(N[C@@H]1CCCC1OC(=O)c1cc(O)c(C(=O)c2c(O)cccc2C(=O)O)c(O)c1)c1ccc(O)cc1` (stereo not given in full), for which the half-inhibitory concentration (IC50) in test [1] amounted to 0.05 µM; in test [2] it was 0.04 µM; in test [3], 0.04 µM; in test [4] it was 0.01 µM; in test [5], 0.0009 µM; in test [6] it was 0.0006 µM. The compound further had an IC50 in test [7] of 0.05 µM.

In the case of `O=C(N[C@@H]1c2ccccc2CC1OC(=O)c1cc(O)c(C(=O)c2c(O)cccc2C(=O)O)c(O)c1)c1ccc(O)cc1` (mixture of isomers), the IC50 in [8] is 50 µM; in [1], 0.17 µM; in test [2] it was 0.2 µM; in test [3], 0.16 µM; in test [4] it was 0.16 µM; in [5], 0.03 µM. Also, the IC50 in [6] is less than 0.01 µM; in [7], 0.31 µM.

As for `O=C(N[C@@H]1Cc2ccccc2C1OC(=O)c1cc(O)c(C(=O)c2c(O)cccc2C(=O)O)c(O)c1)c1ccc(O)cc1` (mixture of isomers), the IC50 in [1] is less than 0.025 µM; in test [2], less than 0.029 µM; in test [3], 0.07 µM; in test [4], less than 0.03 µM; in test [5] it was less than 0.025 µM; in [6] it was less than 0.025 µM. The IC50 in test [7] was determined as 0.48 µM.

In the case of `O=C(N[C@H]1c2ccccc2CC1OC(=O)c1cc(O)c(C(=O)c2c(O)cccc2C(=O)O)c(O)c1)c1ccc(O)cc1` (mixture of isomers), the 50% inhibitory concentration (IC50) in [8] was greater than 100 µM; in [1], 37 µM; in test [2], 37 µM; in test [3], greater than 50 µM; in test [4], 34 µM; in test [5], 21 µM. Further, in [7], the half-inhibitory concentration (IC50) is 25 µM.

`O=C(N[C@@H]1CNCCCC1OC(=O)c1cc(O)c(C(=O)c2c(O)cccc2C(=O)O)c(O)c1)c1ccc(O)cc1` (stereo not given in full): the IC50 in test [9] was determined as 0.003 µM; in test [10], 0.01 µM; in test [3], 0.03 µM; in test [11], 0.004 µM; in [12] it was 0.01 µM; in test [13], 0.01 µM.

Take `O=C(NC1CNCCCC1OC(=O)c1cc(O)c(C(=O)c2c(O)cccc2C(=O)O)c(O)c1)c1ccc(O)cc1` (racemic): the 50% inhibitory concentration (IC50) in [9] was less than 0.1 µM; in test [10], 0.08 µM; in test [3] it was 0.37 µM; in [11], 0.05 µM; in test [12], 0.26 µM; in test [13] it was 0.14 µM.

`O=C(N[C@@H]1CNCC1OC(=O)c1cc(O)c(C(=O)c2c(O)cccc2C(=O)O)c(O)c1)c1ccc(O)cc1` (stereo not given in full): the IC50 was 0.07 µM in [8]; 0.033 µM in test [1]; 0.01 µM in test [2]; 0.022 µM in [3]; 0.012 µM in [4]; 0.005 µM in test [5]. Further, the 50% inhibitory concentration (IC50) in [6] came to 0.004 µM; in test [7], 0.01 µM.

In the case of `O=C(N[C@@H]1c2ccccc2C[C@@H]1OC(=O)c1cc(O)c(C(=O)c2c(O)cccc2C(=O)O)c(O)c1)c1ccc(O)cc1`, the IC50 was found to be 50 µM in test [8]; 0.05 µM in test [1]; 0.06 µM in [2]; 0.29 µM in test [3]; 0.05 µM in test [4]; 0.05 µM in test [5]. Moreover, the half-maximal inhibitory concentration (IC50) is less than 0.05 µM in test [6] and 1.9 µM in [7].

With `O=C(N[C@H]1CNCCCC1OC(=O)c1cc(O)c(C(=O)c2c(O)cccc2C(=O)O)c(O)c1)c1ccc(O)cc1` (stereo not given in full), the IC50 is 0.26 µM in test [9]; 0.5 µM in test [10]; 3 µM in test [3]; 0.42 µM in [11]; 0.88 µM in [12]; 0.4 µM in [13].
